We go through 1 molecule from US10543240B2, “Topical composition containing glycerin and yeast extract” (Johnson & Johnson Consumer Inc., priority 2016, dated 2020).

For this assay, the system named is S. epidermis (ATCC 12228). The experiment in a line: Growth of S. epidermidis under aerobic conditions, time-to-detection (BacT/Alert 3D system). It counts as cell-based, Staphylococcus epidermidis. To be noted: S. epidermidis inoculated at 1000 CFU/mL in standard aerobic bottles; test material in PBS; average of three samples; PBS control = 100. The text has this:
The ability of four test materials to grow S. epidermis (ATCC 12228) under aerobic conditions was investigated. The materials were: 1) phosphate buffered saline buffer solution (PBS), 2) PBS containing 5% of an aqueous solution containing 0.13 weight percent of an extract of Pichia anomala grown on kiwi, 3) PBS containing 3% glycerol, and 4) PBS containing both 5% of an aqueous solution containing 0.13 weight percent of an extract of Pichia anomala grown on kiwi and 3% glycerol. The BacT/Alert 3D system (BioMerieux Inc.) was used to determine the time-to-detection (“TTD”) of S. epidermidis according to the manufacturer's instruction. S. epidermidis were inoculated at concentrations of 1000 colony-forming units (CFU)/mL into standard aerobic bottles (BioMerieux Inc.). The test materials were prepared in PBS and injected into the standard aerobic bottles at the indicated final concentration with the volume of 1 ml. Standard aerobic bottles inoculated with S. epidermidis only and 10 ml of PBS was used as control. Bottles were then inserted into the BacT/Alert 3D system until stationary growth phase. The TTD values were automatically calculated by the BacT/Alert 3D according to the growth algorism. Three samples were tested for each test material and the resulted were averaged. Relative Time-to-Detection (RTTD) was calculated as (TTD treatment-TTD control)/TTD control*100.

Consider `OCC(O)CO` [3% Glycerol, glycerol], for which the “RTTD (Relative Time-to-Detection)” value came to 92.56.
